ChEMBL document CHEMBL6182936, “Discovery of KDX1381, a Bivalent CK2α Inhibitor for the Treatment of Solid Tumors as a Single Agent or in Combination” (J Med Chem, 2025)
≈ marks a conversion by molar mass, not a printed value. Each block holds one molecule with its values, some of them ahead of it. Calls of active or inactive are those of the source. No cut-off for these calls is given here.

Legend:
786-0 [1] = test: cells; conditions: Homo sapiens, 786-0, 72 h
in vitro = conditions: mouse, hepatocytes
physchem [2] = conditions: PBS buffer, pH 7.4
physchem [3] = test: physchem
786-0 [4] = test: cells; conditions: Homo sapiens
SK-BR-3 [5] = test: cells; conditions: Homo sapiens
SK-BR-3 [6] = test: cells; conditions: Homo sapiens; remark: listed apart in the source
786-0 [7] = test: cells; conditions: Homo sapiens; remark: listed apart in the source
animal or person [8] = conditions: Homo sapiens, SF767, po, 1152 h, read-out: TGI
in vivo [9] = conditions: CD-1, mouse, ip, 40 mg/kg
in vivo [10] = conditions: CD-1, mouse, iv, 1 mg/kg
Hep 3B2 [11] = test: animal or person; conditions: Mus musculus, Hep3B, po, read-out: TGI
in vivo [12] = conditions: CD-1, mouse, ip, 40 mg/kg; remark: listed apart in the source
HCT-116 = test: cells; conditions: Homo sapiens, HCT-116, 72 h, read-out: Activity
in vivo [13] = conditions: CD-1, mouse, iv, 1 mg/kg; remark: listed apart in the source
786-0 [14] = test: cells; conditions: Homo sapiens, 786-0, 72 h, read-out: Activity
in vivo [15] = conditions: CD-1, mouse, iv, 1 mg/kg; remark: listed apart in the source
physchem [16] = conditions: PBS buffer, pH 7.4; remark: listed apart in the source
A-375 = conditions: Homo sapiens, dose 5-40 mg/kg, route ip
animal or person [17] = conditions: Homo sapiens, SF767, po, 1152 h, read-out: TGI; remark: listed apart in the source
786-0 [18] = test: animal or person; conditions: Mus musculus, 786-0, 384 h, read-out: TGI
animal or person [19] = conditions: Homo sapiens, SF767, po, 1152 h, read-out: TGI; remark: listed apart in the source
in vivo [20] = conditions: CD-1, mouse, ip, 40 mg/kg; remark: listed apart in the source
786-0 [21] = conditions: Homo sapiens, dose 20.0 mg/kg, route po, time 28.0 day
in vivo [22] = conditions: CD-1, mouse, ip, 40 mg/kg; remark: listed apart in the source
786-0 [23] = test: cells; conditions: Homo sapiens, 786-0, 72 h, read-out: Activity; remark: listed apart in the source
physchem [24] = conditions: FaSSIF, pH 6.5
786-0 [25] = test: cells; conditions: Homo sapiens, 786-0, 72 h, read-out: Activity; remark: listed apart in the source
physchem [26] = conditions: NCl, pH 1.2
Hep 3B2 [27] = test: animal or person; conditions: Mus musculus, Hep3B, po, read-out: TGI; remark: listed apart in the source
786-0 [28] = test: cells; conditions: Homo sapiens, 786-0, 72 h, read-out: Activity; remark: listed apart in the source
Hep 3B2 [29] = test: animal or person; conditions: Mus musculus, Hep3B, po, read-out: TGI; remark: listed apart in the source

SMILES: COc1cccc(F)c1-c1ccc(S(=O)(=O)NCCN2CCC(Cn3cc(-c4c(C(C)=O)[nH]c5ccc(F)cc45)nn3)CC2)cc1
IC50 (786-0 [1]): > 10 µM
remaining at 0.5 h (in vitro): 48%
solubility at 24 h (physchem [2]): 5.4 µg/mL (≈ 8.32 µM)

SMILES: CC(C)Cc1ccc(S(=O)(=O)NCCN2CCC(Cn3cc(-c4c(C(=O)C(C)C)[nH]c5ccc(F)cc45)nn3)CC2)cc1
IC50 (786-0 [1]): > 10 µM
remaining at 0.5 h (in vitro): 15%
solubility at 24 h (physchem [2]): 0.9 µg/mL (≈ 1.48 µM)

SMILES: CC(C)COC(=O)c1[nH]c2ccc(F)cc2c1-c1cn(CC2CCN(CCNS(=O)(=O)c3ccc(CC(C)C)cc3)CC2)nn1
IC50 (786-0 [1]): > 10 µM
solubility (physchem [3]): < 0.5 µg/mL
IC50 (786-0 [4]): 14.8 µM
remaining at 0.5 h (in vitro): < 10%
IC50 (SK-BR-3 [5]): 8.9 µM
solubility at 24 h (physchem [2]): < 0.5 µg/mL
IC50 (SK-BR-3 [6]): 8.9 µM
IC50 (786-0 [7]): 14.8 µM

SMILES: CC(=O)c1[nH]c2ccc(F)cc2c1-c1cn(CC2CCN(CCNS(=O)(=O)c3ccc(-c4cccc5ccsc45)cc3)CC2)nn1
IC50 (786-0 [1]): > 10 µM

SMILES: Cn1nnc2c(C(N)=O)ncn2c1=O [TEMOZOLOMIDE]
inhibition in vivo at 20 mg/kg (animal or person [8]): 67%

SMILES: CC(=O)c1[nH]c2ccc(F)cc2c1-c1cn(CC2CCN(CCNS(=O)(=O)c3ccc(-c4c(O)cccc4F)c(C#N)c3)CC2)nn1
solubility at 24 h (physchem [2]): 25.5 µg/mL (≈ 38.7 µM)

SMILES: CC(C)Cc1ccc(S(=O)(=O)NCCN2CCC(Cn3cc(-c4c(C(=O)C5CC5)[nH]c5ccc(F)cc45)nn3)CC2)cc1
IC50 (786-0 [1]): > 10 µM
solubility at 24 h (physchem [2]): < 0.5 µg/mL

SMILES: COc1cc(S(=O)(=O)NCCN2CCC(Cn3cc(-c4c(C(C)=O)[nH]c5ccc(F)cc45)nn3)CC2)ccc1-c1c(O)cccc1F
IC50 (786-0 [1]): > 10 µM
remaining at 0.5 h (in vitro): 39%
solubility at 24 h (physchem [2]): 3.2 µg/mL (≈ 4.81 µM)

SMILES: CCOC(=O)c1[nH]c2ccc(F)cc2c1-c1cn(CC2CCN(CCNS(=O)(=O)c3ccc(CC(C)C)cc3)CC2)nn1
IC50 (786-0 [1]): > 10 µM
remaining at 0.5 h (in vitro): < 10%
solubility at 24 h (physchem [2]): < 0.5 µg/mL

SMILES: CNC(=O)c1cc(Oc2ccc(NC(=O)Nc3ccc(Cl)c(C(F)(F)F)c3)cc2)ccn1 [SORAFENIB]
viability at 4.5 µM (786-0 [28]): 88%
inhibition in vivo at 40 mg/kg (Hep 3B2 [29]): 29%

SMILES: O=C(O)c1ccc2c(c1)nc(Nc1cccc(Cl)c1)c1ccncc12 [SILMITASERTIB]
viability at 10 µM (HCT-116): 69.2%
viability at 10 µM (786-0 [23]): 93.5%

SMILES: COc1cccc(OC)c1-c1ccc(S(=O)(=O)NCCN2CCC(Cn3cc(-c4c(C(C)=O)[nH]c5ccc(F)cc45)nn3)CC2)cc1
IC50 (786-0 [1]): > 10 µM
remaining at 0.5 h (in vitro): 67%
solubility at 24 h (physchem [2]): 8 µg/mL (≈ 12.1 µM)

More lines, main results first:

IC50 (786-0 [1]): > 10 µM
remaining at 0.5 h (in vitro): 26%
solubility at 24 h (physchem [2]): < 0.5 µg/mL
SMILES: CSc1ccccc1-c1ccc(S(=O)(=O)NCCN2CCC(Cn3cc(-c4c(C(C)=O)[nH]c5ccc(F)cc45)nn3)CC2)cc1C

IC50 (786-0 [1]): 3.2 µM
remaining at 0.5 h (in vitro): 53%
solubility at 24 h (physchem [2]): 10.4 µg/mL (≈ 17.9 µM)
SMILES: CC(=O)c1[nH]c2ccc(F)cc2c1-c1cn(CC2CCN(CCNS(=O)(=O)c3ccc(CC(C)C)cc3)CC2)nn1

IC50 (786-0 [1]): 5.9 µM
remaining at 0.5 h (in vitro): 18%
solubility at 24 h (physchem [2]): 2.7 µg/mL (≈ 5.19 µM)
SMILES: CC(C)Cc1ccc(S(=O)(=O)NCCN2CCC(Cn3cc(-c4c[nH]c5ccccc45)nn3)CC2)cc1

IC50 (786-0 [1]): 6.8 µM
remaining at 0.5 h (in vitro): 25%
solubility at 24 h (physchem [2]): 1.5 µg/mL (≈ 2.78 µM)
SMILES: CC(C)Cc1ccc(S(=O)(=O)NCCN2CCC(Cn3cc(-c4c[nH]c5ccc(F)cc45)nn3)CC2)cc1

IC50 (786-0 [1]): > 10 µM
solubility at 24 h (physchem [2]): < 0.5 µg/mL
SMILES: CC(=O)c1[nH]c2ccc(F)cc2c1-c1cn(CC2CCN(CCNS(=O)(=O)c3ccc(-c4c(O)cccc4F)c(Cl)c3)CC2)nn1

IC50 (786-0 [1]): > 10 µM
solubility at 24 h (physchem [2]): < 0.5 µg/mL
SMILES: CC(=O)c1[nH]c2ccc(F)cc2c1-c1cn(CC2CCN(CCNS(=O)(=O)c3ccc(-c4c(F)cccc4C(F)(F)F)cc3)CC2)nn1

IC50 (786-0 [1]): 3.6 µM
remaining at 0.5 h (in vitro): < 10%
solubility at 24 h (physchem [2]): 1.1 µg/mL (≈ 1.57 µM)
SMILES: CC(=O)c1[nH]c2ccc(F)cc2c1-c1cn(CC2CCN(CCNS(=O)(=O)c3ccc(-c4c(O)cccc4F)c(C(F)(F)F)c3)CC2)nn1

IC50 (786-0 [1]): 1.7 µM
remaining at 0.5 h (in vitro): 44%
solubility at 24 h (physchem [2]): 1.9 µg/mL (≈ 2.82 µM)
SMILES: COc1cccc(OC)c1-c1ccc(S(=O)(=O)NCCN2CCC(Cn3cc(-c4c(C(C)=O)[nH]c5ccc(F)cc45)nn3)CC2)cc1C

IC50 (786-0 [1]): 6.6 µM
remaining at 0.5 h (in vitro): 27%
solubility at 24 h (physchem [2]): 3.4 µg/mL (≈ 5.24 µM)
SMILES: CC(=O)c1[nH]c2ccc(F)cc2c1-c1cn(CC2CCN(CCNS(=O)(=O)c3ccc(-c4c(O)cccc4F)c(C)c3)CC2)nn1

IC50 (786-0 [1]): 0.9 µM
remaining at 0.5 h (in vitro): 46%
solubility at 24 h (physchem [2]): 18.5 µg/mL (≈ 30 µM)
SMILES: CC(=O)c1[nH]c2ccc(F)cc2c1-c1cn(CC2CCN(CCNS(=O)(=O)c3ccc(-c4ccccc4O)cc3)CC2)nn1

IC50 (786-0 [1]): 3.3 µM
solubility at 24 h (physchem [2]): < 0.5 µg/mL
SMILES: CC(=O)c1[nH]c2ccc(F)cc2c1-c1cn(CC2CCN(CCNS(=O)(=O)c3ccc(-c4c(O)cccc4Cl)cc3)CC2)nn1

bioavailability at 24 h (in vivo [9]): > 100%
IC50 (786-0 [1]): 0.8 µM
half-life at 24 h (in vivo [10]): 67.8 min
AUC(0-inf) at 24 h (in vivo [12]): 8640 ng·h/mL
clearance at 24 h (in vivo [13]): 60.5 mL/min/kg
Vd at 24 h (in vivo [15]): 5.9 L/kg
solubility (physchem [16]): 1.7 µg/mL (≈ 2.68 µM)
Cmax at 24 h (in vivo [20]): 2700 ng/mL
remaining at 0.5 h (in vitro): 42%
solubility at 24 h (physchem [2]): 10.7 µg/mL (≈ 16.9 µM)
Tmax at 24 h (in vivo [22]): 1.33 h
solubility (physchem [24]): > 100 µg/mL
solubility (physchem [26]): 28.2 µg/mL (≈ 44.4 µM)
SMILES: CC(=O)c1[nH]c2ccc(F)cc2c1-c1cn(CC2CCN(CCNS(=O)(=O)c3ccc(-c4c(O)cccc4F)cc3)CC2)nn1
inhibition in vivo at 30 mg/kg (Hep 3B2 [11]): 95%
viability at 10 µM (HCT-116): 85.1%
viability at 1 µM (786-0 [14]): 25%
TGI (A-375): Active
inhibition in vivo at 40 mg/kg (animal or person [17]): 103%
inhibition in vivo at 40 mg/kg (786-0 [18]): 90%
inhibition in vivo at 40 mg/kg (animal or person [19]): 77%
TGI (786-0 [21]): Active
viability at 10 µM (786-0 [23]): 12.7%
viability at 1 µM (786-0 [25]): 90.4%
inhibition in vivo at 30 mg/kg (Hep 3B2 [27]): 74%

IC50 (786-0 [1]): 2.9 µM
SMILES: COc1ccccc1-c1ccc(S(=O)(=O)NCCN2CCC(Cn3cc(-c4c(C(C)=O)[nH]c5ccc(F)cc45)nn3)CC2)cc1C
